From the CheMixHub ionic liquid set

Assay: xn = mol fraction of the nth substance listed

CCCCC[N+](CCCCC)(CCCCC)CCCCC.O=[N+]([O-])[O-] + CCCCCCCCCCCC[N+](C)(C)C.[Br-] + O
viscosity [mPa·s], 100 kPa
Conditions	x2 = 5.424e-05, x1 = 0.0001802	x2 = 0.0001085, x1 = 0.0001801	x2 = 0.0001627, x1 = 0.0001801	x2 = 0.0002169, x1 = 0.0001801	x2 = 0.0002712, x1 = 0.0001801	x2 = 0.0003254, x1 = 0.0001801	x2 = 0.0003796, x1 = 0.0001801	x2 = 0.0004338, x1 = 0.0001801	x2 = 0.000488, x1 = 0.0001801	x2 = 0.0005422, x1 = 0.0001801
293.15 K	1.045	1.046	1.048	1.049	1.05	1.051	1.052	1.052	1.052	1.052
298.15 K	0.929	0.931	0.932	0.933	0.933	0.934	0.934	0.934	0.935	0.935
303.15 K	0.825	0.825	0.825	0.825	0.826	0.826	0.827	0.827	0.827	0.828
308.15 K	0.735	0.736	0.736	0.736	0.736	0.737	0.737	0.738	0.739	0.739
313.15 K	0.668	0.668	0.669	0.669	0.669	0.67	0.67	0.67	0.671	0.671
318.15 K	0.62	0.621	0.621	0.622	0.622	0.622	0.622	0.622	0.623	0.623

CC(C)C[C@H](NC(=O)CN)C(=O)O + CCCCCCCCCCCC[N+](C)(C)Cc1ccccc1.[Cl-] + O
electrical conductivity [S/m], 101 kPa
Conditions	293.15 K	298.15 K	303.15 K	308.15 K	313.15 K
x1 = 0.0009002, x2 = 0	0.00295	0.00335	0.0038	0.00435	0.00495
x1 = 0.001793, x2 = 0	0.00449	0.00524	0.00608	0.00702	0.00811

CCCCCCCCCCCCCC[P+](CCCCCC)(CCCCCC)CCCCCC.N#Cc1ccc[n-]1 + CCCCCC[n+]1ccn(C)c1.O=S(=O)([N-]S(=O)(=O)C(F)(F)F)C(F)(F)F
viscosity [mPa·s], 100 kPa
Conditions	x2 = 0	x2 = 0.2	x2 = 0.4	x2 = 0.504
283.15 K	–	–	940	810
288.15 K	800	790	–	–

CCCCCCCCCCCCCC[P+](CCCCCC)(CCCCCC)CCCCCC.[c-]1c[nH]nn1 + CCCCCC[n+]1ccn(C)c1.O=S(=O)([N-]S(=O)(=O)C(F)(F)F)C(F)(F)F
viscosity [mPa·s], 100 kPa
Conditions	278.15 K	283.15 K	288.15 K	293.15 K	298.15 K	303.15 K	308.15 K	313.15 K	318.15 K	323.15 K
x2 = 0.135	2499	1630	1087	744	527	382	284	215	166	131
x2 = 0.3	2448	1593	1061	725	511	369	274	206	159	125
x2 = 0.348	2031	1329	890	614	437	317	236	180	139	109
x2 = 0.45	1597	1057	717	498	358	262	197	151	118	94
x2 = 0.58	1211	820	567	402	294	219	168	131	104	84
x2 = 0.698	755	522	369	268	200	152	119	94	76	62
x2 = 0.849	417	295	214	159	122	96	77	62	51	–

CCCC(C)O (stereo unspecified) + CCCCCC[n+]1ccn(C)c1.O=[N+]([O-])[O-]
Conditions	viscosity [mPa·s]
323.15 K, 100 kPa, x2 = 0	1.39

C[NH2+]CCC=C1c2ccccc2CCc2ccccc21.[Cl-] + CCCCCC[n+]1ccn(C)c1.[Br-] + O
viscosity [mPa·s], 100 kPa
Conditions	288.15 K	298.15 K	308.15 K	318.15 K
x1 = 0.0002039, x2 = 0.00126	1.185	0.957	0.792	0.677
x1 = 0.000208, x2 = 0.0001801	1.17	0.938	0.775	0.658
x1 = 0.0002218, x2 = 0.0007201	1.178	0.948	0.785	0.658
x1 = 0.0005639, x2 = 0.0001801	1.181	0.948	0.785	0.667
x1 = 0.0005652, x2 = 0.001259	1.196	0.967	0.802	0.688
x1 = 0.0005656, x2 = 0.0007199	1.189	0.957	0.794	0.667
x1 = 0.0009086, x2 = 0.0007196	1.201	0.967	0.803	0.676
x1 = 0.0009302, x2 = 0.00018	1.192	0.958	0.795	0.676
x1 = 0.0009557, x2 = 0.001259	1.208	0.978	0.812	0.699
x1 = 0.001281, x2 = 0.001258	1.22	0.989	0.822	0.709
x1 = 0.001285, x2 = 0.0001799	1.204	0.969	0.805	0.685
x1 = 0.001294, x2 = 0.0007194	1.213	0.977	0.812	0.685
x1 = 0.001641, x2 = 0.0001799	1.217	0.98	0.815	0.694
x1 = 0.001649, x2 = 0.0007191	1.226	0.988	0.821	0.694
x1 = 0.001666, x2 = 0.001258	1.233	1.001	0.832	0.719
x1 = 0.001985, x2 = 0.0001798	1.23	0.991	0.825	0.703
x1 = 0.002032, x2 = 0.0007188	1.239	0.999	0.831	0.703
x1 = 0.002034, x2 = 0.001257	1.246	1.013	0.843	0.728
x1 = 0.002348, x2 = 0.0001797	1.244	1.002	0.835	0.712
x1 = 0.002385, x2 = 0.0007186	1.253	1.012	0.842	0.712
x1 = 0.002389, x2 = 0.001257	1.26	1.025	0.854	0.737
x1 = 0.00272, x2 = 0.0001797	1.258	1.014	0.845	0.721
x1 = 0.002762, x2 = 0.0007183	1.267	1.025	0.854	0.721
x1 = 0.002776, x2 = 0.001256	1.275	1.037	0.865	0.746
x1 = 0.003079, x2 = 0.0001796	1.273	1.026	0.855	0.73
x1 = 0.003114, x2 = 0.000718	1.282	1.037	0.866	0.731
x1 = 0.003126, x2 = 0.001256	1.291	1.049	0.876	0.755
x1 = 0.003445, x2 = 0.0001796	1.288	1.038	0.865	0.739
x1 = 0.003472, x2 = 0.001255	1.307	1.063	0.888	0.764
x1 = 0.003507, x2 = 0.0007177	1.297	1.05	0.878	0.741

CCCCCCCCCCCCCC[P+](CCCCCC)(CCCCCC)CCCCCC.N#Cc1ccc[n-]1 + CCCCCC[n+]1ccn(C)c1C.O=S(=O)([N-]S(=O)(=O)C(F)(F)F)C(F)(F)F
100 kPa
Conditions	viscosity [mPa·s]
278.15 K, x2 = 0.799	900
283.15 K, x2 = 0.601	900
288.15 K, x2 = 0	800
288.15 K, x2 = 0.098	870
288.15 K, x2 = 0.301	760

CCCC[n+]1ccn(C)c1.[Br-] + CCCCOCCO
viscosity [mPa·s], 100 kPa
Conditions	x1 = 0.1007	x1 = 0.2003	x1 = 0.3007	x1 = 0.4003	x1 = 0.5	x1 = 0.5992	x1 = 0.7002	x1 = 0.8003	x1 = 0.8978	x1 = 1
298.15 K	18.4	56.8	108	155	201	263	374	577	920	1451
303.15 K	12.2	32.5	59.6	86.7	115	152	212	320	511	837
308.15 K	9.08	22.8	40.7	59.4	77	98	132	187	297	506
313.15 K	6.85	16.2	29.1	41.7	54.2	67.6	87.9	122	188	330

CC(O)C(C)O (stereo unspecified) + CCCC[N+](C)(C)C.O=S(=O)([N-]S(=O)(=O)C(F)(F)F)C(F)(F)F
101 kPa
Conditions	viscosity [mPa·s]
323.15 K, x1 = 0.557	16.54
323.15 K, x1 = 0.6216	16.03
328.15 K, x1 = 0.557	13.6
333.15 K, x1 = 0.3137	15.23
333.15 K, x1 = 0.4515	13.1
333.15 K, x1 = 0.557	11.67
343.15 K, x1 = 1	6.7
